Laboratory results published in PubChem BioAssay AID330 (DTP/NCI, 2004).
“And” between values parts separate entries of the source, which are not always exact repeats. Equal values may be shown once. Inconclusive results and toxic doses are left out.

Test system: P388 leukemia ip, CD2F1 mice, survival T/C
Assay: NCI In Vivo Anticancer Drug Screen. Data for tumor model P388 Leukemia (intraperitoneal) in CD2F1 (CDF1) mice
Details: endpoint: median survival time, higher = longer survival
Description: The antitumor activity of compounds was measured in mice bearing transplantable tumors. Survival or tumor size were measured and the results are expressed as the measurement made in the treated group (T) divided by the measurement made in the vehicle treated control group (C). The tumor model used in this assay is P388 Leukemia (intraperitoneal) in CD2F1 (CDF1) mice

[1] = dose: 100.0 mg/kg/injection, schedule: Q04DX002 (ip), vehicle: Klucel (hydroxypropylcellulose) (HPC)
[2] = dose: 200.0 mg/kg/injection, schedule: Q04DX002 (ip), vehicle: Klucel (hydroxypropylcellulose) (HPC)
[3] = dose: 50.0 mg/kg/injection, schedule: Q01DX005 (ip), vehicle: Klucel (hydroxypropylcellulose) (HPC)
[4] = dose: 100.0 mg/kg/injection, schedule: Q01DX005 (ip), vehicle: Klucel (hydroxypropylcellulose) (HPC)
[5] = dose: 200.0 mg/kg/injection, schedule: Q01DX005 (ip), vehicle: Klucel (hydroxypropylcellulose) (HPC)
[6] = dose: 25.0 mg/kg/injection, schedule: Q04DX002 (ip), vehicle: saline with Tween-80
[7] = dose: 50.0 mg/kg/injection, schedule: Q04DX002 (ip), vehicle: saline with Tween-80
[8] = dose: 100.0 mg/kg/injection, schedule: Q04DX002 (ip), vehicle: saline with Tween-80
[9] = dose: 200.0 mg/kg/injection, schedule: Q04DX002 (ip), vehicle: saline with Tween-80
[10] = dose: 50.0 mg/kg/injection, schedule: Q01DX009 (ip), vehicle: saline with Tween-80
[11] = dose: 100.0 mg/kg/injection, schedule: Q01DX009 (ip), vehicle: saline with Tween-80
[12] = dose: 200.0 mg/kg/injection, schedule: Q01DX009 (ip), vehicle: saline with Tween-80
[13] = dose: 50.0 mg/kg/injection, schedule: Q01DX009 (ip), vehicle: Klucel (hydroxypropylcellulose) (HPC)
[14] = dose: 100.0 mg/kg/injection, schedule: Q01DX009 (ip), vehicle: Klucel (hydroxypropylcellulose) (HPC)
[15] = dose: 200.0 mg/kg/injection, schedule: Q01DX009 (ip), vehicle: Klucel (hydroxypropylcellulose) (HPC)
[16] = dose: 50.0 mg/kg/injection, schedule: Q01DX005 (ip), vehicle: saline with Tween-80

SMILES: CC1=C(/C=C/C(C)=N/NC(N)=S)C(C)(C)CCC1
- T/C (dose: 6.25 mg/kg/injection, schedule: Q01DX009 (ip), vehicle: saline with Tween-80): 100 % of control
- T/C (dose: 12.5 mg/kg/injection, schedule: Q01DX009 (ip), vehicle: saline with Tween-80): 115 % of control

SMILES: Cc1ccc(N=Nc2c(-c3ccccc3)nn(C(=S)S)c2C)cc1
- T/C (dose: 25.0 mg/kg/injection, schedule: Q04DX002 (ip), vehicle: Klucel (hydroxypropylcellulose) (HPC)): 97 % of control
- T/C (dose: 50.0 mg/kg/injection, schedule: Q04DX002 (ip), vehicle: Klucel (hydroxypropylcellulose) (HPC)): 107 % of control
- T/C [1]: 105 % of control
- T/C [2]: 96 % of control
- T/C (dose: 400.0 mg/kg/injection, schedule: Q04DX002 (ip), vehicle: Klucel (hydroxypropylcellulose) (HPC)): 107 % of control

SMILES: CC(O)C(NC(=O)OCC1c2ccccc2-c2ccccc21)C(=O)O (stereo not given)
- T/C [3]: 104 % of control
- T/C [4]: 100 % of control
- T/C [5]: 107 % of control

SMILES: O=C1CC(C(Cl)(Cl)Cl)O1 (stereo not given)
- T/C (dose: 25.0 mg/kg/injection, schedule: Q04DX003 (ip), vehicle: saline): 97 % of control
- T/C (dose: 50.0 mg/kg/injection, schedule: Q04DX003 (ip), vehicle: saline): 97 % of control
- T/C (dose: 100.0 mg/kg/injection, schedule: Q04DX003 (ip), vehicle: saline): 99 % of control
- T/C (dose: 200.0 mg/kg/injection, schedule: Q04DX003 (ip), vehicle: saline): 99 % of control

SMILES: C/C(=N\NC(N)=Nc1ccc(Cl)cc1)c1ccc2c(c1)Cc1cc(/C(C)=N/NC(N)=Nc3ccc(Cl)cc3)ccc1-2
- T/C [6]: 87 % of control
- T/C [7]: 90 % of control
- T/C [8]: 97 % of control
- T/C [9]: 101 % of control
- T/C (dose: 400.0 mg/kg/injection, schedule: Q04DX002 (ip), vehicle: saline with Tween-80): 100 % of control

SMILES: C1SSCSSS1
- T/C [10]: 115 % of control
- T/C [11]: 117 % of control
- T/C [12]: 111 % of control

SMILES: OC1CCCCCC2CC12 (stereo not given) (tested in a mixture with another compound)
- T/C (dose: 50.0 mg/kg/injection, schedule: Q01DX009 (ip), vehicle: other): 102 % of control
- T/C (dose: 100.0 mg/kg/injection, schedule: Q01DX009 (ip), vehicle: other): 103 % of control
- T/C (dose: 200.0 mg/kg/injection, schedule: Q01DX009 (ip), vehicle: other): 96 % of control

SMILES: COc1ccc(NC(=O)C(Cl)Cl)ccc1=O
- T/C [10]: 91 % of control

SMILES: Oc1ccc(/C=N/NC(=S)Nc2ccccc2)nc1
- T/C (dose: 265.0 mg/kg/injection, schedule: Q04DX003 (ip), vehicle: Klucel (hydroxypropylcellulose) (HPC)): 114 % of control
- T/C (dose: 400.0 mg/kg/injection, schedule: Q04DX003 (ip), vehicle: Klucel (hydroxypropylcellulose) (HPC)): 123 % of control
- T/C (dose: 600.0 mg/kg/injection, schedule: Q04DX003 (ip), vehicle: Klucel (hydroxypropylcellulose) (HPC)): 117 % of control

SMILES: NCC(=O)CN.[Cl-].[Cl-].[Pt+2]
- T/C (dose: 25.0 mg/kg/injection, schedule: Q04DX003 (ip), vehicle: other): 121 % of control
- T/C (dose: 200.0 mg/kg/injection, schedule: Q04DX003 (ip), vehicle: other): 158 % of control
- T/C (dose: 400.0 mg/kg/injection, schedule: Q04DX003 (ip), vehicle: other): 177 % of control

SMILES: CCOC(=O)c1ccc(NCC#N)cc1
- T/C (dose: 100.0 mg/kg/injection, schedule: Q04DX003 (ip), vehicle: saline with Tween-80): 100 % of control
- T/C (dose: 200.0 mg/kg/injection, schedule: Q04DX003 (ip), vehicle: saline with Tween-80): 100 % of control
- T/C (dose: 400.0 mg/kg/injection, schedule: Q04DX003 (ip), vehicle: saline with Tween-80): 100 % of control

SMILES: N#CNC1=NCOCN1
- T/C (dose: 60.0 mg/kg/injection, schedule: Q01DX005 (ip), vehicle: saline with Tween-80): 100 % of control
- T/C (dose: 120.0 mg/kg/injection, schedule: Q01DX005 (ip), vehicle: saline with Tween-80): 100 % of control

SMILES: COc1cc(/C=C2/CCC/C(=C\c3ccc(OCC(O)COc4ccc(C(C)(C)c5ccc(OCC6CO6)cc5)cc4)c(OC)c3)C2=O)ccc1OCC(O)COc1ccc(C(C)(C)c2ccc(OCC3CO3)cc2)cc1 (stereo not given)
- T/C [13]: 96 % of control
- T/C [14]: 97 % of control
- T/C [15]: 95 % of control

SMILES: COc1ccc2nccc3c2c1NC(Cl)=C3
- T/C (dose: 60.0 mg/kg/injection, schedule: Q01DX005 (ip), vehicle: Klucel (hydroxypropylcellulose) (HPC)): 97 % of control
- T/C (dose: 120.0 mg/kg/injection, schedule: Q01DX005 (ip), vehicle: Klucel (hydroxypropylcellulose) (HPC)): 103 % of control
- T/C (dose: 240.0 mg/kg/injection, schedule: Q01DX005 (ip), vehicle: Klucel (hydroxypropylcellulose) (HPC)): 97 % of control

SMILES: C=CCC12CC(O)C(O)CC1(OC)OC(c1cc(OC)c(OC)c(OC)c1)C2C (stereo not given)
- T/C (dose: 1.25 mg/kg/injection, schedule: Q01DX005 (ip), vehicle: acid diluted with saline): 102 % of control
- T/C (dose: 2.5 mg/kg/injection, schedule: Q01DX005 (ip), vehicle: acid diluted with saline): 102 % of control
- T/C (dose: 5.0 mg/kg/injection, schedule: Q01DX005 (ip), vehicle: acid diluted with saline): 98 % of control
- T/C (dose: 10.0 mg/kg/injection, schedule: Q01DX005 (ip), vehicle: acid diluted with saline): 102 % of control

SMILES: CSc1cccc(NC(=O)Nc2nc3c(C)cccc3s2)c1
- T/C [3]: 96 % of control
- T/C [4]: 95 % of control
- T/C [5]: 90 % of control

SMILES: CCCN(C)CC(C)(O)CNc1cc(OC)cc2cccnc12 (stereo not given)
- T/C (dose: 12.5 mg/kg/injection, schedule: Q01DX005 (ip), vehicle: saline): 100 % of control
- T/C (dose: 25.0 mg/kg/injection, schedule: Q01DX005 (ip), vehicle: saline): 95 % of control
- T/C [16]: 106 % of control
- T/C (dose: 50.0 mg/kg/injection, schedule: Q01DX005 (ip), vehicle: saline): 99 % of control

SMILES: CC(=O)c1c(O)c(C)c(O)c2c1OC1=Cc3onc(C)c3C(=O)C12C (stereo not given)
- T/C (dose: 50.0 mg/kg/injection, schedule: Q01DX009 (ip), vehicle: gum acacia): 99 % of control and 102 % of control
- T/C (dose: 100.0 mg/kg/injection, schedule: Q01DX009 (ip), vehicle: gum acacia): 102 % of control and 104 % of control
- T/C (dose: 200.0 mg/kg/injection, schedule: Q01DX009 (ip), vehicle: gum acacia): 92 % of control and 93 % of control

SMILES: CCOC(=O)C(C#N)(CCC(=NC(C)(C)C)Nc1c(Cl)cccc1Cl)CCC(=NC(C)(C)C)Nc1c(Cl)cccc1Cl (stereo not given)
- T/C [10]: 105 % of control
- T/C [11]: 101 % of control
- T/C [12]: 92 % of control

SMILES: Clc1ccc(Nc2nnc(-c3ccc4c(c3)OCO4)o2)cc1
- T/C [3]: 93 % of control
- T/C [4]: 101 % of control
- T/C [5]: 93 % of control

SMILES: O=C(NC1CCCCC1(O)c1ccc([N+](=O)[O-])cc1)C(Cl)Cl (stereo not given)
- T/C [1]: 100 % of control
- T/C [2]: 100 % of control

SMILES: COc1ccc(Nc2ccc([N+](=O)[O-])c3nonc23)cc1
- T/C [16]: 92 % of control
- T/C (dose: 100.0 mg/kg/injection, schedule: Q01DX005 (ip), vehicle: saline with Tween-80): 87 % of control

SMILES: CN(CC(=O)O)c1ccc(/C=C/c2ccnc3ccccc23)cc1
- T/C (dose: 50.0 mg/kg/injection, schedule: Q01DX001 (ip), vehicle: saline with Tween-80): 100 % of control
- T/C (dose: 100.0 mg/kg/injection, schedule: Q01DX001 (ip), vehicle: saline with Tween-80): 97 % of control
- T/C (dose: 200.0 mg/kg/injection, schedule: Q01DX001 (ip), vehicle: saline with Tween-80): 103 % of control
- T/C (dose: 400.0 mg/kg/injection, schedule: Q01DX001 (ip), vehicle: saline with Tween-80): 101 % of control

SMILES: COC(CN(C)C)C(Cl)(Cl)Cl (stereo not given)
- T/C [13]: 103 % of control
- T/C [14]: 108 % of control
- T/C [15]: 101 % of control

SMILES: CN=C(N)NN=C(c1cccc(F)c1)c1cccc(F)c1
- T/C [6]: 100 % of control
- T/C [7]: 102 % of control
- T/C [8]: 100 % of control

SMILES: CC(=O)Nc1scc[n+]1Cc1ccccc1
- T/C [3]: 100 % of control
- T/C [4]: 100 % of control
- T/C [5]: 91 % of control

SMILES: Cc1ccc(-c2cnc3[nH]c(=O)[nH]c(=O)c3n2)cc1
- T/C (dose: 100.0 mg/kg/injection, schedule: Q04DX002 (ip), vehicle: saline): 97 % of control
- T/C (dose: 200.0 mg/kg/injection, schedule: Q04DX002 (ip), vehicle: saline): 106 % of control
- T/C (dose: 400.0 mg/kg/injection, schedule: Q04DX002 (ip), vehicle: saline): 91 % of control

SMILES: CNCc1c(O)ccc2c(-c3ccccc3)cc(=O)oc12
- T/C [8]: 100 % of control
- T/C [9]: 101 % of control
